Measured values from US8865706B2, “Heteroaryl-substituted hexahydropyrano[3,4-d][1,3]thiazin-2-amine compounds” (Pfizer Inc., priority 2013, dated 2014).

Key:
BACE1 enzyme = BACE1 enzyme (Homo sapiens (Human), UniProt P56817); assay: BACE1 Cell-Free Assay (fluorescence polarization, cleavage of synthetic APP substrate); assay type: biochemical; conditions: average of 2 determinations; values marked b: geometric mean of 3-9 determinations
Text: This assay measures the inhibition of the beta-secretase enzyme as it cleaves a non-native peptide.
A synthetic APP substrate that can be cleaved by beta-secretase having N-terminal biotin and made fluorescent by the covalent attachment of Oregon Green at the Cys residue is used to assay beta-secretase activity in the presence or absence of the inhibitory compounds. […] The BACE1 enzyme is affinity purified material from conditioned media of CHO-K1 cells that have been transfected with a soluble BACE construct (BACE1deltaTM96His). Compounds are incubated in a ½ log dose response curve from a top concentration of 100 μM with BACE1 enzyme and the biotinylated fluorescent peptide in 384-well black plates (Thermo Scientific #4318). BACE1 is at a final concentration of 0.1 nM with a final concentration of peptide substrate of 150 nM in a reaction volume of 30 μL assay buffer [100 mM sodium acetate, pH 4.5 (brought to pH with acetic acid), and 0.001% Tween-20]. Plates are covered and incubated for 3 hours at 37° C. The reaction is stopped with the addition of 30 μL of 1.5 μM Streptavidin (Pierce, #21125). After a 10 minute incubation at room temperature, plates are read on a PerkinElmer EnVision for fluorescence polarization (Ex485 nm/Em530 nm). The activity of the beta-secretase enzyme is detected by changes in the fluorescence polarization that occur when the substrate is cleaved by the enzyme.

[1] = system: sAPPβ levels in H4 human neuroglioma cells over-expressing the wild-type human APP695; assay: Whole Cell Assay (In Vitro sAPPb Assay); assay type: cell-based; conditions: Homo sapiens, 18 hours treatment, average of 2 determinations, values marked b: geometric mean of 3-9 determinations
Description: Whole Cell Assay (In Vitro sAPPb Assay):
H4 human neuroglioma cells over-expressing the wild-type human APP695 are treated for 18 hours with compound in a final concentration 1% DMSO. sAPPβ levels are measured using TMB-ELISA with capture APP N-terminal antibody (Affinity BioReagents, OMA1-03132), wild-type sAPPβ specific reporter p192 (Elan), and tertiary anti rabbit-HRP (GE Healthcare).

Sequence of BACE1 enzyme (P56817 46-457): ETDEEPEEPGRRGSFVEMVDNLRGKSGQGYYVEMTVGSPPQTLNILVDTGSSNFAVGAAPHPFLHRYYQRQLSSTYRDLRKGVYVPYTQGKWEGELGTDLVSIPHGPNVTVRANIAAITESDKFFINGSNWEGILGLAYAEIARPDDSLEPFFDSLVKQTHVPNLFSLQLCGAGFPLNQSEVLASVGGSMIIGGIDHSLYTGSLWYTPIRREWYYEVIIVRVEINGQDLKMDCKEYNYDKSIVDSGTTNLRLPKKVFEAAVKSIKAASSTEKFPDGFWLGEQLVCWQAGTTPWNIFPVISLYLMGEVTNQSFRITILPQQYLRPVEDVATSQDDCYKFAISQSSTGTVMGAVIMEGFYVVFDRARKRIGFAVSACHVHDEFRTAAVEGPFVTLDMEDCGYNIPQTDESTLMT

SMILES	IC50 (BACE1 enzyme)	IC50 [1]
COc1cnc([C@H]2C[C@H]3CSC(N)=N[C@@]3(c3ccc(F)cc3F)CO2)nc1 [Example 11, (4aR,6R,8aS)-8a-(2,4-Difluorophenyl)-6-(5-methoxypyrimidin-2-yl)-4,4a,5,6,8,8a-hexahydropyrano[3,4-d][1,3]thiazin-2-amine]	343 nM	29.1 nM
C[C@H]1SC(N)=N[C@@]2(c3ccc(F)cc3F)CO[C@@H](c3cnn(C)c3)C[C@@H]12 [Example 16, (4R,4aR,6R,8aS)-8a-(2,4-Difluorophenyl)-4-methyl-6-(1-methyl-1H-pyrazol-4-yl)-4,4a,5,6,8,8a-hexahydropyrano[3,4-d][1,3]thiazin-2-amine]	24.6 nM	2.84 nM
Cn1cc([C@H]2C[C@H]3CSC(N)=N[C@@]3(c3ccc(F)cc3F)CO2)nn1 [Example 18, (4aR,6R,8aS)-8a-(2,4-Difluorophenyl)-6-(1-methyl-1H-1,2,3-triazol-4-yl)-4,4a,5,6,8,8a-hexahydropyrano[3,4-d][1,3]thiazin-2-amine]	877 nM	25.2 nM

Next, values leading:

IC50 (BACE1 enzyme)	IC50 [1]	SMILES
1550 nM	141 nM	NC1=N[C@@]2(c3ccc(F)cc3F)CO[C@@H](c3cncnc3)C[C@H]2CS1 [Example 24, (4aR,6R,8aS)-8a-(2,4-Difluorophenyl)-6-(pyrimidin-5-yl)-4,4a,5,6,8,8a-hexahydropyrano[3,4-d][1,3]thiazin-2-amine]
555 nM	73.2 nM	N#Cc1coc([C@H]2C[C@H]3CSC(N)=N[C@@]3(c3ccc(F)cc3F)CO2)n1 [Example 19, 2-[(4aR,6R,8aS)-2-Amino-8a-(2,4-difluorophenyl)-4,4a,5,6,8,8a-hexahydropyrano[3,4-d][1,3]thiazin-6-yl]-1,3-oxazole-4-carbonitrile]
